Experimental data taken from patent US20100028360A1, “METHODS FOR THE MODULATION OF BRAIN PROGESTAGEN SIGNALING IN THE PREVENTION AND TREATMENT OF NEUROLOGICAL DISORDERS AND NEURODEGENERATIVE DISEASES” (priority 2008, published 2010).
“Also recorded” adds a separate entry of the source. No end group written: not given here.

What was measured:
[1] = system: hESC; assay: hESC cell proliferation, trypan blue assay; type: cell-based, human; conditions: E2 10 nM, P4 2 μM or E2+P4, 6 d; compared to untreated control cells
Experimental: (§1) FIG. 1. P4 differentiates hESC into neuroectoderm. (a) hESC were grown in TESR1 media—Li in the presence of E2 (10 nM), P4 (2 μM) or E2 (10 nM)+P4 (2 μM) for 6 d and cell proliferation measured using the trypan blue assay. Results are expressed as mean±SEM, n=3 (*p<0.05, **p<0.005 compared to 6 d control). (b) Equal amounts of protein from cell lysates of hESC treated for 9 d as described above were analyzed by immunoblot using a monoclonal antibody against nestin (clone 10C2; Chemicon, Calif., USA). (c) hESC were cultured for 4 d, enzymatically lifted and placed into EB media (containing serum) and rocked gently for an additional 4 d prior to being placed in one of two neural induction medias for an additional 11 days, where P4 was either absence or present. During this transition from EB to rosettes, colony structures treated with P4 also were treated with a PR antagonist (RU-486; 20 μM) or ER antagonist (ICI 182,780) for 11 d. At 19 d, morphological observation and molecular analysis were performed. […] (ii) hESC structure in the absence of P4. (iii) PR antagonist treated rosettes (RU-486, 20 μM). (iv) ER antagonist (ICI 182,780). (d) Equal amounts of protein from cell lysates of the above structures were analyzed by immunoblot with the monoclonal antibody against human nestin.

[2] = system: hESC; assay: EB and neuroectodermal rosette/NPC formation from hESC, morphological observation; type: cell-based, human; conditions: neural induction media with P4, antagonist for 11 d (RU-486 20 μM); observed at 19 d
Experimental: as §1

[3] = system: nestin; assay: nestin immunoblot of hESC / EB-rosette structure lysates; type: cell-based, human
Experimental: as §1

[4] = system: Tg2576 mice carrying the Swedish AβPP mutation; conditions: aged Tg2576 transgenic mice; cited from earlier work
[5] = system: rat hippocampal slices; assay: extracellular field responses in CA1 of isolated hippocampal slices; type: cell-based; conditions: 50 nM
Experimental: FIG. 3. GnRH1 increases neuronal excitability in hippocampal slices from old rats. Typical traces from hippocampal slice cut transversely at 500 μm thickness from 37 day (A) and 19 month (B) old male rats. Orthodromic extracellular field responses were recorded in the cell body layer of the CA1. Responses were evoked by a bipolar electrode with a constant current stimuli (50 μs duration) delivered every 30 s by electrodes placed in the schaeffer collaterals. 50 nM GnRH1 was used. Mean values are shown in C., n=5 slices each for young rats and n=3 slices each for old rats. Slices from two young and two old animals were used. Superfusion of human GnRH evoked a 50% increase in the maximum amplitude of population spikes in hippocampal slices from old rats compared to controls (FIGS. 3B, C).

With C[C@]12CC[C@@H]3c4ccc(O)cc4CC[C@H]3[C@@H]1CC[C@@H]2O [E2, estradiol] the “decrease in the rate of hESC proliferation” value [1] was 16%.

For C[C@]12CC[C@@H]3c4ccc(O)cc4C[C@@H](CCCCCCCCC[S+]([O-])CCCC(F)(F)C(F)(F)F)[C@H]3[C@@H]1CC[C@@H]2O (stereo partly drawn) [ICI 182,780], the “EB and neuroectodermal rosette/NPC formation” value [2] was “No rosettes were detected” and the “nestin expression in antagonist treated structures” value ([3]; antagonist for 11 d (RU-486 20 μM), immunoblot at 19 d) was “absence of nestin”.

For CC(=O)[C@H]1CC[C@H]2[C@@H]3CCC4=CC(=O)CC[C@]4(C)[C@H]3CC[C@]12C [P4, pregn-4-ene-3,20-dione], the “decrease in the rate of hESC proliferation” value [1] was 29%, the “EB and neuroectodermal rosette/NPC formation” value [2] was “a minimum of three rosette structures” and the “nestin expression in hESC” value ([3]; hESC treated for 9 d, E2 10 nM, P4 2 μM, immunoblot) was “increased the expression of the neuroectodermal marker nestin; also recorded: induces nestin expression”.

For CCNC(=O)[C@@H]1CCCN1C(=O)[C@H](CCCNC(=N)N)NC(=O)[C@H](CC(C)C)NC(=O)[C@@H](CC(C)C)NC(=O)[C@H](Cc1ccc(O)cc1)NC(=O)[C@H](CO)NC(=O)[C@H](Cc1c[nH]c2ccccc12)NC(=O)[C@H](Cc1c[nH]cn1)NC(=O)[C@@H]1CCC(=O)N1 [leuprolide acetate], the Aβ deposition [4] is listed as “halts Aβ deposition” and the cognitive performance [4] is listed as “improves cognitive performance”.

For “GnRH1: human gonadotropin releasing hormone, superfused at 50 nM (QHWSYGLRPG; ends and bridges not checked; UniProt P01148 24-33, looked up)”, the “increase in the maximum amplitude of population spikes compared to controls” value ([5]; hippocampal slices from old (19 month old) rats) was 50%, the “increase in neuronal excitability compared to controls” value ([5]; hippocampal slices from young (37 day old) rats) was 22% and the “maximum amplitude of field responses, cell body layer of CA1” value ([5]; old rats, n=3, control 2.54±0.18 mV, p=0.05) was 3.99±0.84 mV. For the same molecule, the “maximum amplitude of field responses, cell body layer of CA1” value ([5]; young rats, n=5, control 7.0±1.4 mV, p=0.548) was 7.9±2.7 mV.
